Patent publication US11306064B2, “Benzothia(di)azepine compounds and their use as bile acid modulators” (Albireo AB, priority 2018, dated 2022)

Target: T1, Human ASBT (Homo sapiens, UniProt Q12908)
T1 construct: expressed in transfected cells; kept under Puromycin selection
T1 sequence (Q12908 1-348): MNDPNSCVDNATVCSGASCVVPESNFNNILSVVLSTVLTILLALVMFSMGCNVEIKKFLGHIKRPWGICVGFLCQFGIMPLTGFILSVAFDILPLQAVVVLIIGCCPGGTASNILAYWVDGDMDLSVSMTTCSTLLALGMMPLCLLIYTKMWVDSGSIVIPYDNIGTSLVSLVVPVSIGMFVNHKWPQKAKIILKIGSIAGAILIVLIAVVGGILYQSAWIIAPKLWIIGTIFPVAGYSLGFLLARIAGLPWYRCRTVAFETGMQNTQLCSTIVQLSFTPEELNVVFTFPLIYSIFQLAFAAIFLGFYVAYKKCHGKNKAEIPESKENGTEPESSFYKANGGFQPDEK
Test: ASBT (h/m) assay: 3H-taurocholic acid uptake in human ASBT-overexpressing cells
Type: cell-based
Conditions: 0.25 μM 3H-taurocholic acid and 5 μM cold taurocholic acid, 20 minutes, read-out: hASBT IC50
Method in brief: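 ASBT-overexpressing cells, seeded 48 h earlier, took up 0.25 µM 3H-taurocholic acid plus 5 µM cold taurocholate for 20 min at 37 °C with inhibitor (10-point 3-fold series, top 10 µM, 0.2% DMSO). Ice stop, washes with cold 1 mM taurocholate in HEPES-HBSS pH 7.4, scintillation counting.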

| SMILES | IC50 |
| --- | --- |
| CCCCC1(CC)CN(c2ccccc2)c2cc(Br)c(O/C=C/C(=O)O)cc2S(=O)(=O)C1 (single isomer, unassigned) [Example 6, (E)-3-((7-bromo-3-butyl-3-ethyl-1,1-dioxido-5-phenyl-2,3,4,5-tetrahydro-1,5-benzothiazepin-8-yl)oxy)acrylic acid] | 57 nM |
| CCCCC1(CC)CN(c2ccccc2)c2cc(SC)c(O/C=C/C(=O)O)cc2S(=O)(=O)C1 (single isomer, unassigned) [Example 18, (E)-3-((3-butyl-3-ethyl-7-(methylthio)-1,1-dioxido-5-phenyl-2,3,4,5-tetrahydro-1,5-benzothiazepin-8-yl)oxy)acrylic acid] | 19 nM |
| CCCCC1(CC)CN(c2ccccc2)c2cc(SC)c(O/C=C(\F)C(=O)O)cc2S(=O)(=O)C1 (single isomer, unassigned) [Example 43, (Z)-3-((3-butyl-3-ethyl-7-(methylthio)-1,1-dioxido-5-phenyl-2,3,4,5-tetrahydro-1,5-benzothiazepin-8-yl)oxy)-2-fluoroacrylic acid] | 21 nM |
| CCCCC1(CC)CN(c2ccccc2)c2cc(Cl)c(O/C=C(\F)C(=O)O)cc2S(=O)(=O)C1 (single isomer, unassigned) [Example 48, (Z)-3-((3-butyl-7-chloro-3-ethyl-1,1-dioxido-5-phenyl-2,3,4,5-tetrahydro-1,5-benzothiazepin-8-yl)oxy)-2-fluoroacrylic acid] | 42 nM |
| CCCCC1(CCCC)CN(c2ccccc2)c2cc(SC)c(O/C=C(\F)C(=O)O)cc2S(=O)(=O)C1 [Example 11, (Z)-3-((3,3-dibutyl-7-(methylthio)-1,1-dioxido-5-phenyl-2,3,4,5-tetrahydro-1,5-benzothiazepin-8-yl)oxy)-2-fluoroacrylic acid] | 48 nM |
| CCC1(CC)CN(c2ccccc2)c2cc(SC)c(O/C=C(\F)C(=O)O)cc2S(=O)(=O)C1 [Example 44, (Z)-3-((3,3-diethyl-7-(methylthio)-1,1-dioxido-5-phenyl-2,3,4,5-tetrahydro-1,5-benzothiazepin-8-yl)oxy)-2-fluoroacrylic Acid] | 257 nM |
